From patent US12679878B2, “CRF2 receptor agonists and their use in therapy” (SANOFI, priority 2020, dated 2026)
Where two headings read alike, the source gives them in different places. Starred links: 1 amine or outer side, 2 acyl side, 3 side chain; linkers in the order of their positions; H or OH if unused. Non-standard residues stand in square brackets, D forms with d. Residues, ends and D or L forms follow the SMILES beside them. Groups on a side chain read outwards from the residue. *: point of attachment. C18 diacid = O=C(O)CCCCCCCCCCCCCCCCC(=O)*; γGlu = O=C(O)[C@H](CCC(=O)[*:2])N[*:1]; Palmitoyl = CCCCCCCCCCCCCCCC(=O)*; Aib = CC(C)(N)C(=O)O

Legend:
Type in all cases: cell-based
CRF1R receptor = target: T1, CRF1R receptor (Homo sapiens, UniProt P34998); test: cAMP activity at anti-target CRF1R, CHO-K1 cell line clone 2 (Example 19.10); details: 100% = Sauvagine at 100 nM; CRF1R CHO-K1 clone 2
T1 construct: host or cells: CHO-K1 clone 2
T1 sequence (P34998 24-415): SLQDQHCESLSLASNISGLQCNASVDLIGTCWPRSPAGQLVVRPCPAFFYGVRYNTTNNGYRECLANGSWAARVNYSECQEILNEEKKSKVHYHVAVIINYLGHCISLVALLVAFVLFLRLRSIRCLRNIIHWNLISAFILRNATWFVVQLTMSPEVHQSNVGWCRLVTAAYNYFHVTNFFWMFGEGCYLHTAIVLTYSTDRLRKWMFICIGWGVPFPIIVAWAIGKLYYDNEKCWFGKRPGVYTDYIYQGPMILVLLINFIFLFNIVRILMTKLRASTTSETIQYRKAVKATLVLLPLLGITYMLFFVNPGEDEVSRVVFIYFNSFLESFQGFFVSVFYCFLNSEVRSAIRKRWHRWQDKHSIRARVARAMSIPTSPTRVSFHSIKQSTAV
In short: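 A CRF1R-overexpressing CHO-K1 line (clone 2) was grown in F12/10% FBS/G418 and frozen in aliquots before use. The cAMP assay followed the preceding procedure, with 100% activation defined by Sauvagine at 100 nM.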

rat CRF2R α receptor = test: cAMP agonism at rat CRF2R α receptor in A7R5 rat aortic smooth muscle cells (Example 8); details: cAMP HTRF, A7R5 rat aortic smooth muscle cell line, 0% HSA
Experimental: Cells were grown in a T175 culture flask placed at 37° C. to near confluence in medium (DMEM/10% FBS) and collected in 2 ml vials in cell culture medium containing 10% DMSO in a concentration of 10-50 million cells/ml. Each vial contained 1.8 ml cells. The vials were slowly frozen to −80° C. in isopropanol and then transferred in liquid nitrogen for storage. Prior to use, frozen cells were thawed quickly at 37° C. and washed (5 min at 900 rpm) with 20 ml cell buffer (1×HBSS; 20 mM HEPES; 0% or 0.1% HSA). Cells were resuspended in assay buffer (cell buffer plus 2 mM IBMX) and adjusted to a cell density of 1 million cells/ml. For measurement, 5 μl cells (final […]) and 5 μL of test compound were added to a 384-well plate, followed by incubation for 30 minutes at room temperature.
The CAMP content of cells was determined using a kit from Cisbio Corp. (cat. no. 62AM4PEC) based on HTRF (Homogenous Time Resolved Fluorescence). After addition of HTRF reagents diluted in lysis buffer (kit components), the plates were incubated for 1 h, followed by measurement of the fluorescence ratio at 665/620 nm. The percent activity value (E %) was calculated by setting 1000 nM of urocortin 2 (UCN2) as 100%. The in vitro potency of the compounds was quantified by determining the concentrations that caused 50% activation of maximal response (EC50).
Using the procedure described in Example 7, the activity of the compounds at the rat CRF2R α receptor was assessed. The A7R5 rat aortic smooth muscle cell line was used in this study.

human CRF2α receptor = target: T2, human CRF2α receptor (Homo sapiens, UniProt Q13324); test: cAMP agonism at human CRF2 α receptor in TeloHEAC cells (Example 7); details: cAMP HTRF, TeloHEAC cells stably expressing human CRF2 α
T2 construct: expressed in transfected cells; host or cells: TeloHEAC
T2 sequence (Q13324 1-411): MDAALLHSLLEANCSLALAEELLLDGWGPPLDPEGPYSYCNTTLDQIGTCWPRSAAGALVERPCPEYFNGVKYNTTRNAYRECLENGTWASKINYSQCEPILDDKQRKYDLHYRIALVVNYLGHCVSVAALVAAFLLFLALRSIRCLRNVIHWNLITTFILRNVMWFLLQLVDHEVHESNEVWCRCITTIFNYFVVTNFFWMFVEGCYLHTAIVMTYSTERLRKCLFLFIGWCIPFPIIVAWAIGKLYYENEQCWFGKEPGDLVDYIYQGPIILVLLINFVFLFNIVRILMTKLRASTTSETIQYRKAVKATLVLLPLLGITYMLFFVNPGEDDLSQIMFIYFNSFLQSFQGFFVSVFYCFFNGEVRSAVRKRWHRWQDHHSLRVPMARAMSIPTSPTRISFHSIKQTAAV
In short: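 Steps: thaw and wash cells; suspend in 1×HBSS, 20 mM HEPES, 0 or 0.1% HSA, 2 mM IBMX; add compound, 30 min RT; lyse with HTRF reagents, 1 h; read 665/620 nm. EC50 calculated, E% versus 1000 nM UCN2.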

[1] = 0% HSA, read-out: EC50 [nM], 0% HSA
[2] = 0.1% HSA, read-out: EC50 [nM], 0.1% HSA

Row | EC50 (rat CRF2R α receptor) | EC50 (human CRF2α receptor; [1]) | EC50 (human CRF2α receptor; [2]) | SMILES | Emax (CRF1R receptor)
1 | 0.59 nM | 0.03 nM | 3.13 nM | CC[C@H](C)[C@H](N)C(=O)N[C@H](C(=O)N[C@@H](CC(C)C)C(=O)N[C@@H](CO)C(=O)N[C@@H](CC(C)C)C(=O)N[C@@H](CC(=O)O)C(=O)N[C@@H](C(=O)N1CCC[C@H]1C(=O)N[C@H](C(=O)N[C@@H](CCCCN)C(=O)N[C@@H](CC(C)C)C(=O)N[C@@H](CCCCNC(=O)CCCCCCCCCCCCCCCCC(=O)O)C(=O)N[C@@H](CCC(N)=O)C(=O)N[C@H](C(=O)N[C@@H](CC(C)C)C(=O)N[C@@H](CC(C)C)C(=O)N[C@@H](CCCCN)C(=O)N[C@@H](CCC(N)=O)C(=O)N[C@@H](CCC(=O)O)C(=O)N[C@@H](CCCNC(=N)N)C(=O)N[C@@H](CCC(N)=O)C(=O)N[C@@H](CCCCN)C(=O)NC(C)(C)C(=O)N[C@@H](CCC(N)=O)C(=O)N[C@@H](CCCNC(=N)N)C(=O)N[C@@H](CCC(=O)O)C(=O)N[C@@H](CCC(N)=O)C(=O)N[C@@H](C)C(=O)N[C@@H](CCC(=O)O)C(=O)N[C@@H](CCCCN)C(=O)N[C@@H](CC(N)=O)C(=O)N[C@@H](CCCCN)C(=O)N[C@@H](CCC(N)=O)C(=O)N[C@H](C(=O)N[C@@H](CC(C)C)C(=O)N[C@@H](C)C(=O)N[C@@H](CCC(N)=O)C(=O)N[C@H](C(N)=O)C(C)C)[C@@H](C)CC)[C@@H](C)CC)[C@@H](C)CC)C(C)C)C(C)C [compound 182] (H-IVLSLD[dV]PIKLK(C18 diacid)QILLKQERQK[Aib]QREQAEKNKQILAQV-NH2; N-terminus assumed) | –
2 | 1.12 nM | 0.12 nM | 1.58 nM | CC[C@H](C)[C@H](N)C(=O)N[C@H](C(=O)N[C@@H](CC(C)C)C(=O)N[C@@H](CO)C(=O)N[C@@H](CC(C)C)C(=O)N[C@@H](CC(=O)O)C(=O)N[C@@H](C(=O)N1CCC[C@H]1C(=O)N[C@H](C(=O)N[C@@H](CCCCN)C(=O)N[C@@H](CC(C)C)C(=O)N[C@@H](CCCCNC(=O)CCCCCCCCCCCCCCCCC(=O)O)C(=O)N[C@@H](CCC(N)=O)C(=O)N[C@H](C(=O)N[C@@H](CC(C)C)C(=O)N[C@@H](CC(C)C)C(=O)N[C@@H](CCCCN)C(=O)N[C@@H](CCC(N)=O)C(=O)N[C@@H](C)C(=O)N[C@@H](CCCNC(=N)N)C(=O)N[C@@H](CCC(N)=O)C(=O)N[C@@H](CCCCN)C(=O)NC(C)(C)C(=O)N[C@@H](CCC(N)=O)C(=O)N[C@@H](CCCNC(=N)N)C(=O)N[C@@H](C)C(=O)N[C@@H](CCC(N)=O)C(=O)N[C@@H](C)C(=O)N[C@@H](CCC(=O)O)C(=O)N[C@@H](CCCCN)C(=O)N[C@@H](CC(N)=O)C(=O)N[C@@H](CCCCN)C(=O)N[C@@H](CCCNC(=N)N)C(=O)N[C@H](C(=O)N[C@@H](CC(C)C)C(=O)N[C@@H](CCC(=O)O)C(=O)N[C@@H](CCCNC(=N)N)C(=O)N[C@H](C(N)=O)C(C)C)[C@@H](C)CC)[C@@H](C)CC)[C@@H](C)CC)C(C)C)C(C)C [compound 183] (H-IVLSLD[dV]PIKLK(C18 diacid)QILLKQARQK[Aib]QRAQAEKNKRILERV-NH2; N-terminus assumed) | –
3 | 0.42 nM | 0.05 nM | 2.83 nM | CC[C@H](C)[C@H](N)C(=O)N[C@H](C(=O)N[C@@H](CC(C)C)C(=O)N[C@@H](CO)C(=O)N[C@@H](CC(C)C)C(=O)N[C@@H](CC(=O)O)C(=O)N[C@@H](C(=O)N1CCC[C@H]1C(=O)N[C@H](C(=O)N[C@@H](CCCCN)C(=O)N[C@@H](CC(C)C)C(=O)N[C@@H](CCCCNC(=O)CCCCCCCCCCCCCCCCC(=O)O)C(=O)N[C@@H](CCC(N)=O)C(=O)N[C@H](C(=O)N[C@@H](CC(C)C)C(=O)N[C@@H](CC(C)C)C(=O)N[C@@H](CCCCN)C(=O)N[C@@H](CCC(N)=O)C(=O)N[C@@H](CCC(=O)O)C(=O)N[C@@H](CCCNC(=N)N)C(=O)N[C@@H](CCC(N)=O)C(=O)N[C@@H](CCCCN)C(=O)N[C@@H](CCCCN)C(=O)N[C@@H](CCC(N)=O)C(=O)N[C@@H](CCCNC(=N)N)C(=O)N[C@@H](CCC(N)=O)C(=O)N[C@@H](CCC(N)=O)C(=O)N[C@@H](C)C(=O)N[C@@H](CCC(=O)O)C(=O)N[C@@H](CCCCN)C(=O)N[C@@H](CC(N)=O)C(=O)N[C@@H](CCCCN)C(=O)N[C@@H](CCC(N)=O)C(=O)N[C@H](C(=O)N[C@@H](CC(C)C)C(=O)N[C@@H](C)C(=O)N[C@@H](CCC(N)=O)C(=O)N[C@H](C(N)=O)C(C)C)[C@@H](C)CC)[C@@H](C)CC)[C@@H](C)CC)C(C)C)C(C)C [compound 184] (H-IVLSLD[dV]PIKLK(C18 diacid)QILLKQERQKKQRQQAEKNKQILAQV-NH2; N-terminus assumed) | –

Row | SMILES | EC50 (rat CRF2R α receptor) | EC50 (human CRF2α receptor; [1]) | EC50 (human CRF2α receptor; [2]) | Emax (CRF1R receptor)
4 | CCCCCCCCCCCCCCCC(=O)N[C@@H](CCC(=O)NCCCC[C@H](NC(=O)[C@H](CC(C)C)NC(=O)[C@H](CCCCN)NC(=O)[C@@H](NC(=O)[C@@H]1CCCN1C(=O)[C@H](NC(=O)[C@H](CC(=O)O)NC(=O)[C@H](CC(C)C)NC(=O)[C@H](CO)NC(=O)[C@H](CC(C)C)NC(=O)[C@@H](NC(=O)[C@@H](N)[C@@H](C)CC)C(C)C)C(C)C)[C@@H](C)O)C(=O)N[C@@H](CCC(N)=O)C(=O)N[C@@H](CCCCN)C(=O)N[C@@H](CC(C)C)C(=O)N[C@@H](CC(C)C)C(=O)N[C@@H](CCCCN)C(=O)N[C@@H](CCC(N)=O)C(=O)N[C@@H](CCC(=O)O)C(=O)N[C@@H](CCCNC(=N)N)C(=O)N[C@@H](CCC(N)=O)C(=O)N[C@@H](CCCNC(=N)N)C(=O)N[C@@H](CCCCN)C(=O)N[C@@H](CCC(=O)O)C(=O)N[C@@H](CCCNC(=N)N)C(=O)N[C@@H](CCC(=O)O)C(=O)NC(C)(C)C(=O)N[C@@H](C)C(=O)N[C@@H](CCC(=O)O)C(=O)N[C@@H](CCCCN)C(=O)N[C@@H](CC(N)=O)C(=O)N[C@@H](CCCCN)C(=O)N[C@@H](CCCNC(=N)N)C(=O)N[C@H](C(=O)N[C@@H](CC(C)C)C(=O)N[C@@H](CCC(=O)O)C(=O)N[C@@H](CCCNC(=N)N)C(=O)N[C@H](C(N)=O)C(C)C)[C@@H](C)CC)C(=O)O [SEQ ID NO: 225, IVLSLDvPTKLK*QKLLKQERQRKEREAibAEKNKRILERV-NH2] (H-IVLSLD[dV]PTKLK([γGlu-Palmitoyl])QKLLKQERQRKERE[Aib]AEKNKRILERV-NH2; N-terminus assumed) | 0.12 nM | – | – | 58.9%
